Measurements published in ChEMBL document CHEMBL1158207, “Mauritiamine, a New Antifouling Oroidin Dimer from the Marine Sponge Agelas mauritiana” (1996).
Activity calls are given as the source filed them. No cut-off for these calls is given here.

Key:
Ciona savignyi = test: Promotion of metamorphosis in ascidian Ciona savignyi larvae at 2.5 ug/ml after 10 hrs; assay type: functional, organism-based
[1] = test system: Microbacterium maritypicum; test: Antimicrobial activity against Flavobacterium marinotypicum ATCC 19260 at 10 ug/disk after 24 hrs by paper disk method; assay type: functional; details: ATCC 19260, 24 h, read-out: IZ

Compound | Activity (Ciona savignyi) | zone of inhibition at 10 µg/disc [1]
NC(=O)c1cc(Br)c(Br)[nH]1 | Active | –
NC1=NC(=O)C(/C=C/CNC(=O)c2cc(Br)c(Br)[nH]2)(c2nc(N)[nH]c2/C=C/CNC(=O)c2cc(Br)c(Br)[nH]2)N1 (stereo not drawn) [MAURITIAMINE] | – | 10 mm
Nc1ncc(/C=C/CNC(=O)c2cc(Br)c(Br)[nH]2)[nH]1 [OROIDIN] | – | 15 mm
